Experiment: Protective effect: time to perforation of a sheet of wheat starch exposed to concentrated HCl
Details: end point a clear-cut hole
Protocol: The barrier-like effect of gelatin was experimentally assessed. A Sheet of wheat starch was exposed to a concentrated solution of HCl. The protective action was measured as an extension of time to perforation in comparison to control. The end consisted of a clear-cut hole.
The new threshold matched the potentially dangerous HCl concentration in the stomach at the above-mentioned ration, corresponding to about 6 parts of gelatin to 1 part of TCP.

## O=P([O-])([O-])[O-].O=P([O-])([O-])[O-].[Ca+2].[Ca+2].[Ca+2] [TCP, tricalcium phosphate]
  protective action, extension of time to perforation in comparison to control: almost equally effective
